Laboratory results reported in article PMC4669789, “Selective inhibition of HDAC8 decreases neuroblastoma growth in vitro and in vivo and enhances retinoic acid-mediated differentiation” (Cell Death & Disease, 2015).
Several values for one entry are separate records, joined by “and”; a condition that tells them apart may be missing. Identical values can stand only once.

Key:
Assay in all cases: In vitro HDAC activity assay (Reaction Biology)
Type in all cases: biochemical
[1] = target: HDAC3 (Homo sapiens, UniProt O15379); details: cell-free; read-out: IC50 values of HDAC8 inhibitors, HDAC3
HDAC3, sequence (O15379 3-316 limits assumed): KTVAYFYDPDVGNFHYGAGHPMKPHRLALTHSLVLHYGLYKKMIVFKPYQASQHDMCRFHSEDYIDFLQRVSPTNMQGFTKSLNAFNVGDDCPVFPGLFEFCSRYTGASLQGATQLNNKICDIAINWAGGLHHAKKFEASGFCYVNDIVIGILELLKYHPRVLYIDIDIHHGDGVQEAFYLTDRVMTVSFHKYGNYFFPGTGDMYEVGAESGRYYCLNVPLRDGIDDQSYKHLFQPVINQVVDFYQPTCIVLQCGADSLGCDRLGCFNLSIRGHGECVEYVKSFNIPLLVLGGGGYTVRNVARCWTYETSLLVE
HDAC3, sequence (Q9Y618 395-489 partner limits assumed): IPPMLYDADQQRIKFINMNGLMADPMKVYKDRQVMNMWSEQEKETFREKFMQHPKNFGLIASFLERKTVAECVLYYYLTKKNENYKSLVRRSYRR
Description: (§1) Peptide substrate was conjugated with AMC. […] The HDAC reaction was performed at 30 °C for 2 h before adding the developer reagent. The free AMC was detected with excitation of 360 nm and emission 460 nm at kinetic mode for 90 min. IC50 values were calculated with GraphPad Prism version 3.0a (GraphPad Software Inc., San Diego, CA, USA).

[2] = target: T1, HDAC10 (Homo sapiens, UniProt Q969S8); details: cell-free; read-out: IC50 values of HDAC8 inhibitors, HDAC10
T1 sequence (Q969S8 1-323 limits assumed): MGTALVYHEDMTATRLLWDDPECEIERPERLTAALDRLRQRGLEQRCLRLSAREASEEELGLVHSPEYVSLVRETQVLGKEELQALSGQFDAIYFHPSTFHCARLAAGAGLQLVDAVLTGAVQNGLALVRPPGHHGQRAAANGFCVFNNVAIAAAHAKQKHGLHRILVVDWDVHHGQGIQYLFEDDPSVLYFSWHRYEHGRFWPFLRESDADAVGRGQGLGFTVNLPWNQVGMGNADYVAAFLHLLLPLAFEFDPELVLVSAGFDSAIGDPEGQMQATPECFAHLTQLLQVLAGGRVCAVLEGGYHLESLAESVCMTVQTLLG
Description: as §1

[3] = target: T2, HDAC7 (Homo sapiens, UniProt Q8WUI4); details: cell-free; read-out: IC50 values of HDAC8 inhibitors, HDAC7
T2 sequence (Q8WUI4 512-865 limits assumed): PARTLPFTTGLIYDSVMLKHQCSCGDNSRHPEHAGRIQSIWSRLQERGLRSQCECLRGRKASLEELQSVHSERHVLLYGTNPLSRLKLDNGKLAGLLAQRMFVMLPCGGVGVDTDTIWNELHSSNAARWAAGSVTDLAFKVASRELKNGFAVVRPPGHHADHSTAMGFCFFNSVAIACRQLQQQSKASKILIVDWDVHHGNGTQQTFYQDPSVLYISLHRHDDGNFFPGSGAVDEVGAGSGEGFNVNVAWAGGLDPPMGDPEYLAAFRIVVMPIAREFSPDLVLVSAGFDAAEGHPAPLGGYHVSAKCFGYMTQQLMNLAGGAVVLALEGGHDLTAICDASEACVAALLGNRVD
Description: as §1

[4] = target: HDAC2 (Homo sapiens, UniProt Q92769); details: cell-free; read-out: IC50 values of HDAC8 inhibitors, HDAC2
HDAC2, sequence (Q92769 9-322 limits assumed): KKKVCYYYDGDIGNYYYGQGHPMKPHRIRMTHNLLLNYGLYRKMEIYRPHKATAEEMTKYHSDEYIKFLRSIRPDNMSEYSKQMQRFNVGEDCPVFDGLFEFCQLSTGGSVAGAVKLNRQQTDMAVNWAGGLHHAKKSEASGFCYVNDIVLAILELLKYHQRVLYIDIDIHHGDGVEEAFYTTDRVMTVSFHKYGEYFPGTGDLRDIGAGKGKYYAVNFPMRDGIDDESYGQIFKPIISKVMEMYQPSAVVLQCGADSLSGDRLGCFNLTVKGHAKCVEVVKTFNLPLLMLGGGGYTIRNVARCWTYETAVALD
Description: as §1

[5] = target: HDAC5 (Homo sapiens, UniProt Q9UQL6); details: cell-free; read-out: IC50 values of HDAC8 inhibitors, HDAC5
HDAC5, sequence (Q9UQL6 684-1028 limits assumed): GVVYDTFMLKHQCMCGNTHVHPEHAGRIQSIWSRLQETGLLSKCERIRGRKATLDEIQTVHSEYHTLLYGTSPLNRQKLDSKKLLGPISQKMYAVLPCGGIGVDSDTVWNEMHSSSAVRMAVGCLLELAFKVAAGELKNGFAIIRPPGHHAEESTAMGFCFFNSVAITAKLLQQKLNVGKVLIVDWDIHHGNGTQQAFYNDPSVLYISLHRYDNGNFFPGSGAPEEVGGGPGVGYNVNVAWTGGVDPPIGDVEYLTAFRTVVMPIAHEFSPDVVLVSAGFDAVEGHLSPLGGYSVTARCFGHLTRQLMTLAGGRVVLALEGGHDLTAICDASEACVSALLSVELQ
Description: as §1

[6] = target: T3, HDAC11 (Homo sapiens, UniProt Q96DB2); details: cell-free; read-out: IC50 values of HDAC8 inhibitors, HDAC11
T3 sequence (Q96DB2 14-326 limits assumed): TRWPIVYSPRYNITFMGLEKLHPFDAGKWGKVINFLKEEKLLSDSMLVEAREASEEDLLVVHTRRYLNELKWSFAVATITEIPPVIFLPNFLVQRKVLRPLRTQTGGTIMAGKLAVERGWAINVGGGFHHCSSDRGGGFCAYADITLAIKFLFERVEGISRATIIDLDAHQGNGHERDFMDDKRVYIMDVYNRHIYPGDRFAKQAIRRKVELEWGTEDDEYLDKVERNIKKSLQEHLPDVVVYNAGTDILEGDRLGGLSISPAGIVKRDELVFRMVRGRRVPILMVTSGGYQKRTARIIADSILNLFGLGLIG
Description: as §1

[7] = target: T4, HDAC8 (Homo sapiens, UniProt Q9BY41); details: cell-free; read-out: IC50 values of HDAC8 inhibitors, HDAC8
T4 sequence (Q9BY41 14-324 limits assumed): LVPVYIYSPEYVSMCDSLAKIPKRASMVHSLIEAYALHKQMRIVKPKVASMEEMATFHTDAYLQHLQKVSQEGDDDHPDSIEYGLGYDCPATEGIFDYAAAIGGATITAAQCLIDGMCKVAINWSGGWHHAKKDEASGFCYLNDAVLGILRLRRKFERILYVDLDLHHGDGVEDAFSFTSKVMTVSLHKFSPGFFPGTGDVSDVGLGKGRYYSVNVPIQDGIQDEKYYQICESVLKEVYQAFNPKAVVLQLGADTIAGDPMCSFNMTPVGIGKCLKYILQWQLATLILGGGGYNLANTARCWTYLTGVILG
Description: as §1

Question: For O=C(NO)c1cccc2ccccc12 [Cpd2, 1-naphthohydroxamic acid], which IC50 [1] is on record?
Answer: > 75.6 µM

Question: What about the IC50 [2] of the same compound?
Answer: > 75.6 µM

Question: And the IC50 [3]?
Answer: > 75.6 µM

Question: And the IC50 [4]?
Answer: > 75.6 µM

Question: What about the IC50 [5] of the same compound?
Answer: > 75.6 µM

Question: What about the IC50 [6] of the same compound?
Answer: > 75.6 µM

Question: What about the IC50 [7] of the same compound?
Answer: 34 µM and 33.7 µM
